Each structure is given as a SMILES string. Calls of active or inactive are those of the source.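 How the source made its calls: active means fitted half-maximal concentration for changing reporter fluorescence at or below a set limit; inactive means the rest.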

From PubChem BioAssay AID2744 (NMMLSC, 2010) come the findings set out here.

The target of this experiment is Citrate synthase, peroxisomal (Saccharomyces cerevisiae (strain ATCC 204508 / S288c)) (UniProt P08679). Nature of the experiment: yeast TOR pathway CIT2-GFP reporter potency – flow cytometry, MLPCN hits, dose response (AID 2744). The settings on record: S. cerevisiae CIT2-GFP strain, 3 h, at 33 µM (top of the series). (A flow cytometer gives signals particle by particle.)
Citrate synthase, peroxisomal (Saccharomyces cerevisiae (strain ATCC 204508 / S288c)), sequence (P08679 whole entry, looked up): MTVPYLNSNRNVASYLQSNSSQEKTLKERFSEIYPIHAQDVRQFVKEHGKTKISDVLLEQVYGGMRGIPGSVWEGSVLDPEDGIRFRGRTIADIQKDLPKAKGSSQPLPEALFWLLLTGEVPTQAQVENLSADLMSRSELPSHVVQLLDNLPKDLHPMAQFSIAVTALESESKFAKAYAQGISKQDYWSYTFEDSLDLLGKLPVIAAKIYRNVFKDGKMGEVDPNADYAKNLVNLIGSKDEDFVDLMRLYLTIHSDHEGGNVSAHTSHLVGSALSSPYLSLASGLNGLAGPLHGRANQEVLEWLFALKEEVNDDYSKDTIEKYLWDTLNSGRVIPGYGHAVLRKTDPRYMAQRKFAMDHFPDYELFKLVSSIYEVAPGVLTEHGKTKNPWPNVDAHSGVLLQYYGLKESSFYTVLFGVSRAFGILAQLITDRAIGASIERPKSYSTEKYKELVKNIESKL
For the molecule `CC(=O)Nc1ncnc2c1c(-c1ccc(Cl)cc1)nn2C(C)(C)C`, the “GFP fluorescence, higher = induction” value was “inactive”. With `CCCCc1ccc(NC(=O)CC(C)=O)cc1` the entry was “inactive”; with `CCCOc1ccc(C(=O)NNC(=S)NC(=O)c2ccco2)cc1`, “inactive”. With `N/C(=N\OC(=O)c1cccc(Br)c1)c1ccccc1` the entry was “inactive”; with `c1ccc(-c2cccc(-c3ccccn3)n2)nc1`, “inactive”; with `CCc1ccc(OCC(=O)NNC(=S)NC(=O)C2CC2)c(Br)c1`, “inactive”. With `COc1ccc(C2=CC3=C(Br)C(=O)C(C)(O)C(=O)C3=CO2)cc1` (configuration not stated) the entry was “inactive”; with `COc1ccc(N2C(=O)C(Cl)=C(Nc3c(C)n(C)n(-c4ccccc4)c3=O)C2=O)cc1`, “inactive”; with `O=C(O)c1ccc(COc2ccccc2C=C2C(=O)c3ccccc3C2=O)cc1`, “inactive”. Take `C=CCN1C(=O)/C(=C/c2ccc(-c3ccc(F)cc3)o2)SC1=S`: the “GFP fluorescence, higher = induction” value was “inactive”. With `O=c1oc2ccccc2c(O)c1[C@H]1c2ccc(O)cc2Oc2c1c(=O)oc1ccccc21` the entry was “inactive”; with `Oc1c(CN2CCN(c3ccccc3)CC2)cc(Br)c2cccnc12`, “inactive”.

On to `O=[N+]([O-])c1ccc(O)c(/C=N/Nc2ccccn2)c1`, for which the “GFP fluorescence, higher = induction” value is “inactive”. With `Cc1cccc(NC(c2ccc(C)s2)c2ccc3ccc(C)nc3c2O)n1` (configuration not stated) the entry was “inactive”. With `CCOC(=O)/C(=C\c1cn(C)c2ccccc12)[N+](=O)[O-]` the entry was “inactive”.

Regarding `CCCc1nnc(NC(=O)c2c(O)c3cccc4c3n(c2=O)CCC4)s1`, the “GFP fluorescence, higher = induction” value is “inactive”. With `Clc1cnc(N/N=C/c2cccs2)c(Cl)c1` the entry was “inactive”.

Regarding `N#Cc1ccc(N=c2ssnc2Cl)cc1`, the “GFP fluorescence, higher = induction” value is “inactive”. With `COc1ccc(-c2cc3cc(C(=O)O)ccn3c2C(=O)c2ccccc2)cc1` the entry was “inactive”; with `Cc1[nH]c2ccccc2c1C(=O)COC(=O)c1ccc([N+](=O)[O-])s1`, “inactive”; with `O=C(Nc1nnc(-c2ccc3c(c2)CCCC3)o1)c1ccc(Cl)cc1Cl`, “inactive”. Then `Clc1ccc(N=c2ssnc2Cl)cc1`, with “inactive”.
